Assay results published in ChEMBL document CHEMBL1641443, “Design, synthesis and biological evaluation of small molecule inhibitors of CD4-gp120 binding based on virtual screening” (Bioorg Med Chem, 2011).

test system: Human immunodeficiency virus 1; test: Antiviral activity against recombinant HIV1 YU2 in Cf2Th-CCR5 cells assessed as viral infectivity by luciferase assasy relative to JRC-II-191; assay type: functional, isolate YU2; also: test concentration or dose not given here

SMILES	fold change (FC)
NC(=O)C1CCN(CCC(=O)Nc2ccc(Br)cc2)CC1	0
CC1(C)CC(=O)c2cc(C(=O)Nc3ccc(Cl)cc3)c(=O)[nH]c2C1	0
CCN=C(S)N1CCN(CC(=O)Nc2ccc(Br)cc2)CC1	0
Nc1ccc(C(=O)CC(=O)Nc2ccc(Cl)cc2)cc1	0
N=c1oc2cc(O)ccc2cc1C(=O)Nc1ccc(Cl)cc1	0
O=C(CN1CCCCCC1)Nc1ccc(Br)cc1	0
CC1CCCN(CCC(=O)Nc2ccc(Br)cc2)C1 (configuration not stated)	0
Cc1ccc(N(C)C)cc1NC(=O)COc1ccc(Cl)cc1	0
CCN1CCC(CNC(=O)C(=O)Nc2ccc(Cl)c(F)c2)CC1	0.2
CC1(C)CC(NC(=O)C(=O)Nc2ccc(Cl)c(F)c2)CC(C)(C)[N+]1(C)[O-] (configuration not stated)	0.23
CN1CCCC(ONC(=O)C(=O)Nc2ccc(Cl)c(F)c2)C1 (configuration not stated)	0
CC1CCCCN1C(C)CNC(=O)C(=O)Nc1ccc(Cl)c(F)c1 (configuration not stated)	0
CC1CN(CCNC(=O)C(=O)Nc2ccc(Cl)c(F)c2)CC(C)O1 (configuration not stated)	0
CC(C)(CNC(=O)C(=O)Nc1ccc(Cl)c(F)c1)N1CCOCC1	0
CN1CCC(CNC(=O)C(=O)Nc2ccc(Cl)c(F)c2)(N(C)C)CC1	0.1
CCn1ncnc1C(C)NC(=O)C(=O)Nc1ccc(Cl)c(F)c1 (configuration not stated)	0
CCc1n[nH]c(NC(=O)C(=O)Nc2ccc(Cl)c(F)c2)c1CC	0
O=C(NCc1n[nH]c2c1CCCCC2)C(=O)Nc1ccc(Cl)c(F)c1	0.1
O=C(Nc1ccc(Cl)c(F)c1)C(=O)Nc1cnn2c1NCCC2	0
O=C(Nc1ccc(Cl)c(F)c1)C(=O)Nc1cccc2[nH]ncc12	0
Cn1ccnc1C(O)(CCNC(=O)C(=O)Nc1ccc(Cl)c(F)c1)C(F)(F)F (configuration not stated)	0
CC(NC(=O)C(=O)Nc1ccc(Cl)c(F)c1)c1ccc2c(c1)NC(=O)CO2 (configuration not stated)	0

SMILES	fold change (FC)
CCN1CCCC1CNC(=O)C(=O)Nc1ccc(Cl)cc1 (configuration not stated)	0
O=C(Nc1ccc(Cl)c(F)c1)C(=O)N[C@H]1CCN(Cc2ccccc2)C1	0
O=C(NCC1CCN(C2CC2)C1)C(=O)Nc1ccc(Cl)c(F)c1 (configuration not stated)	0.3
O=C(Nc1ccc(Cl)c(F)c1)C(=O)NC1CCN(C2CCCCC2)C1 (configuration not stated)	0.48
O=C(NCC1CCN(CCN2CCOCC2)C1)C(=O)Nc1ccc(Cl)c(F)c1 (configuration not stated)	0.1
O=C(NC[C@@H]1CCCN2CCCC[C@H]12)C(=O)Nc1ccc(Cl)c(F)c1	0
CC(C)(C)c1cc(CNC(=O)C(=O)Nc2ccc(Cl)c(F)c2)n[nH]1	0.1
CC1(C)CC(NC(=O)C(=O)Nc2ccc(Cl)cc2F)CC(C)(C)N1	0
CC1(C)CC(NC(=O)C(=O)Nc2ccc(Cl)cc2Cl)CC(C)(C)N1	0
Cc1cc(Cl)ccc1NC(=O)C(=O)NC1CC(C)(C)NC(C)(C)C1	0
CC1(C)CC(NC(=O)C(=O)Nc2ccc(Cl)cc2C(F)(F)F)CC(C)(C)N1	0
COc1cc(Cl)ccc1NC(=O)C(=O)NC1CC(C)(C)NC(C)(C)C1	0
CCOc1cc(Cl)ccc1NC(=O)C(=O)NC1CC(C)(C)NC(C)(C)C1	0
CC1(C)CC(NC(=O)C(=O)Nc2ccc(Cl)cc2OCc2ccccc2)CC(C)(C)N1	0
CC1(C)Cc2c(sc(NC(=O)C(=O)Nc3ccc(Cl)c(F)c3)c2C#N)C(C)(C)N1	0
Nc1ncc(CNC(=O)C(=O)Nc2ccc(Cl)c(F)c2)cn1	0
CNS(=O)(=O)Cc1ccc(CNC(=O)C(=O)Nc2ccc(Cl)c(F)c2)cc1	0
CC(NC(=O)C(=O)Nc1ccc(Cl)c(F)c1)c1ccc(S(N)(=O)=O)cc1 (configuration not stated)	0
CCN(CC)C(CNC(=O)C(=O)Nc1ccc(Cl)c(F)c1)CC(C)C (configuration not stated)	0
CN(C)C(CNC(=O)C(=O)Nc1ccc(Cl)c(F)c1)c1ccco1 (configuration not stated)	0
CN(C)C(CNC(=O)C(=O)Nc1ccc(Cl)c(F)c1)N1CCCC1 (configuration not stated)	0
O=C(NCC(c1ccco1)N1CCCC1)C(=O)Nc1ccc(Cl)c(F)c1 (configuration not stated)	0

SMILES	fold change (FC)
O=C(NCC(c1ccc(Cl)cc1)N1CCCC1)C(=O)Nc1ccc(Cl)c(F)c1 (configuration not stated)	0.4
CN1CCN(C(CNC(=O)C(=O)Nc2ccc(Cl)c(F)c2)c2cccs2)CC1 (configuration not stated)	0
CN1CCN(C(CNC(=O)C(=O)Nc2ccc(Cl)c(F)c2)c2ccccc2Cl)CC1 (configuration not stated)	0.11
CC(NC(=O)C(=O)Nc1ccc(Cl)c(F)c1)C(c1ccccc1Cl)N1CCOCC1 (configuration not stated)	0
O=C(NCc1ccccc1CN1CCOCC1)C(=O)Nc1ccc(Cl)c(F)c1	0.5
COc1cc(NC(=O)C(=O)NC2CC(C)(C)NC(C)(C)C2)ccc1Cl	0
CC(C)Oc1cc(NC(=O)C(=O)NC2CC(C)(C)NC(C)(C)C2)ccc1Cl	0
CC1(C)CC(NC(=O)C(=O)Nc2ccc(Cl)c(OCc3ccccc3)c2)CC(C)(C)N1	0
CC1(C)CC(NC(=O)C(=O)Nc2cccc(OCc3ccccc3)c2)CC(C)(C)N1	0
CC(C)COc1cc(Cl)ccc1NC(=O)C(=O)NC1CC(C)(C)NC(C)(C)C1	0
CC1(C)CC(NC(=O)C(=O)Nc2ccc(N=[N+]=[N-])cc2)CC(C)(C)N1	0
CC(C)c1ccccc1NC(=O)C(=O)NC1CC(C)(C)NC(C)(C)C1	0
CC(C)c1cccc(NC(=O)C(=O)NC2CC(C)(C)NC(C)(C)C2)c1	0
CC1(C)CC(NC(=O)C(=O)Nc2c[nH]c3ncccc23)CC(C)(C)N1	0
CC1(C)CC(NC(=O)C(=O)Nc2ccc3ccccc3c2)CC(C)(C)N1	0
CC1(C)CC(NC(=O)C(=O)Nc2ccc(-n3cc(CCc4ccccc4)nn3)cc2)CC(C)(C)N1	0
CC1(C)CC(NC(=O)C(=O)Nc2ccc(-n3cc(-c4ccccc4)nn3)cc2)CC(C)(C)N1	0
CC1(C)CC(NC(=O)C(=O)Nc2ccc(-n3cc(CCCCCO)nn3)cc2)CC(C)(C)N1	0
O=C(COc1ccc(Cl)cc1)Nc1cc(=O)[nH]c(=O)[nH]1	0
Cc1cc(SCC(=O)Nc2ccc(Cl)cc2)nc(=O)[nH]1	0
O=C(Nc1ccc(Cl)cc1)c1cc2c([nH]c1=O)CCCC2	0
O=C(Nc1ccc(Cl)cc1)Nc1ncnc2[nH]cnc12	0

SMILES	fold change (FC)
O=C(Nc1cc[nH]c(=O)n1)c1sc2cc(Cl)ccc2c1Cl	0
O=C(Nc1ccc2c(c1)C(=O)NC2=O)c1ccc(Cl)c(Cl)c1	0
C[C@@H](Sc1nc(=O)cc(N)[nH]1)C(=O)Nc1ccc(Cl)cc1	0
O=C(COc1ccc(Cl)cc1)Nc1ccc2[nH]c(=O)[nH]c2c1	0
O=C(CSc1nc(=O)[nH]c2c1CCCC2)Nc1ccc(Cl)cc1	0
CN1CCC(NC(=O)Nc2ccc(Cl)cc2Cl)CC1	0
CN1CCCN(C(=O)COc2ccc(Cl)cc2)CC1	0
Cc1cccc(-c2cc(C(=O)Nc3ccc(Cl)cc3)n[nH]2)c1O	0
O=C(Nc1ccc(Cl)cc1)c1cc(-n2cnnc2)[nH]n1	0
CC1(C)OC(=O)N(CCC(=O)Nc2ccc(Cl)cc2)[C@@]1(C)O	0
Cc1cc(OCC(=O)NCc2nc[nH]n2)ccc1Cl	0
O=C(NCCc1cnc[nH]1)Nc1ccc(Cl)c(Cl)c1	0
CC1(C)NC(=O)N(C[C@H](O)COc2ccc(Cl)cc2)C1=O	0
O=C(COC(=O)c1n[nH]c2ccccc12)Nc1ccc(Cl)cn1	0
C[C@H](Sc1nc(N)cc(N)n1)C(=O)Nc1ccc(Cl)cc1	0
CC1(C)CC(NC(=O)C(=O)Nc2ccc3cc[nH]c3c2)CC(C)(C)N1	0
CC1Sc2cc(C(=O)NC3CC(C)(C)NC(C)(C)C3)ccc2NC1=O (configuration not stated)	0
CC1(C)CC(=NNC(=O)c2n[nH]c3c2CCCC3)CC(C)(C)N1	0
O=C(NCc1ccco1)C(=O)Nc1ccc(Br)cc1	0
CC1(C)CC(NC(=O)C(=O)NCCc2ccc(Cl)cc2)CC(C)(C)N1	0
O=C(Nc1ccc(Br)cc1)c1cc(CN2CCCC2)on1	0
O=C(NCC1COc2ccccc2O1)C(=O)Nc1ccc(Br)cc1 (configuration not stated)	0

SMILES	fold change (FC)
Cc1nn(C)cc1CN(C)CC(=O)Nc1ccc(Br)cc1	0
COc1cccc(N[C@@H](C)C(=O)Nc2ccc(Br)cc2)c1	0
O=C(NCc1ccc2c(c1)OCO2)C(=O)Nc1ccc(Br)cc1	0
COc1cccc(NC(=O)C(=O)Nc2ccc(Cl)cc2)c1	0
O=C(CSCc1cc(O)[nH]n1)Nc1ccc(Br)cc1	0
CCN1CCCC1CNC(=O)C(=O)Nc1c(C(=O)OC)sc(C)c1C (configuration not stated)	0
O=C(Nc1ccc(Br)cc1)C(=O)Nc1cccc2ccccc12	0
O=C(NCC1OCCc2ccccc21)C(=O)Nc1ccc(Br)cc1 (configuration not stated)	0
CC(CC(=O)Nc1ccc(Br)cc1)Nc1cccc(CO)c1 (configuration not stated)	0
COc1cccc(CNC(=O)C(=O)Nc2ccc(Cl)cc2)c1	0
O=C(NC[C@@H]1COC2(CCCC2)O1)C(=O)Nc1ccc(Cl)cc1	0
CC(C)C1CCN(CCC(=O)Nc2ccc(Br)cc2)CC1	0
Cc1cc(NC(=O)C(=O)c2c[nH]c3ccccc23)ccc1Br	0
C[C@@H]1CN(CCC(=O)Nc2ccc(Br)cc2)C[C@H](C)O1	0
CCOC(=O)[C@H]1CCCN(CCC(=O)Nc2ccc(Br)cc2)C1	0
C[C@H]1CCCN(CCC(=O)Nc2ccc(Cl)cc2)C1	0
Cc1ccc(C(C)C)c(OCC(=O)NNC(=O)Nc2ccc(Cl)cc2)c1	0
CC1(C)CC(NC(=O)C(=O)Nc2ccc(Cl)cc2)CC(C)(C)N1	1
O=C(Nc1ccc(Cl)cc1)C(=O)c1c[nH]c2ccccc12	0
